Source: patent US12606528B2, “Methods and materials for inhibiting NF-kB activity” (University of Pittsburgh - Of the Commonwealth System of …, priority 2019, dated 2026)
Like-named read-outs stand apart in the source and are kept apart here.

Tested on: NF-κB
Test: NF-κB assay: THP1-NF-κB-LUC cells, LPS-stimulated secreted luciferase
Format: cell-based
Conditions: THP1-NF-κB-LUC cells, read-out: IC50 (NF-κB assay)
Protocol: FIG. 1 contains line plots showing NF-κB activity of exemplified compounds. 25k THP1-NF-κB-LUC cells were dispensed into 384 well plate (per well). Cells were treated with compounds (2 μM and 0.2 μM) for 2 hours before addition of LPS (10 ng/mL) for 18 hours. Secreted luciferase activity were measured using quant-luc reagents (1 bag of luc reagent dilute to 40 mL, use 10 μL per well). Data were normalized to vehicle control and graphed. Structures of selected exemplified compounds are shown.
FIG. 2 contains heat charts showing NF-κB activity of exemplified compounds as a function of concentration. 25k THP1-NF-κB-LUC cells were dispensed into 384 well plate (per well). Cells were treated with compounds (with serial dilution) for 2 hours before addition of LPS (10 ng/ml) for 18 hours. Secreted luciferase activity were measured using quant-luc reagents (1 bag of luc reagent dilute to 40 mL, use 10 μL per well). Structures of selected exemplified compounds are shown.
25k THP1-NF-κB-LUC cells were dispensed into 384 well plate (per well). Cells were treated with compounds with various concentrations for 2 hours before addition of LPS (10 ng/mL) for 18 hours. Secreted luciferase activity were measured using quant-luc reagents (1 bag of luc reagent dilute to 40 mL, use 10 μL per well). Data were normalized to vehicle control and graphed. Compound IC50 towards inhibiting NF-κB were determined through Prism. Similarly, 10k human PBMCs cells were cultured in 384 well plate (per well). Cells were treated with compounds with various concentrations for 2 hours before addition of LPS (10 ng/ml) for 18 hours, and supernatants were collected and assayed for TNF ELISA. Compound IC50 towards inhibiting TNF release were determined through Prism. • Activity: “+”>10 μM, “++”>1 μM and <10 μM, “+++”>0.1 μM and <1 μM, “++++”<0.1 μM.

[1] = compounds 2 hours before LPS (10 ng/mL) for 18 hours, secreted luciferase

SMILES | IC50 [1] | IC50 (LPS-stimulated)
N#Cc1ccc2c(=O)c(S(=O)(=O)c3ccc(F)c(Cl)c3)c[nH]c2c1 [BC18300] | 100 to 1000 nM | 
O=c1c(S(=O)(=O)c2cccc(F)c2)c[nH]c2c(F)cccc12 [BC18301] | 1000 to 10000 nM | 
Cc1ccc(S(=O)(=O)c2c[nH]c3cc(Cl)ccc3c2=O)cc1F [BC18302] | < 100 nM | 
Cc1ccc(S(=O)(=O)c2c[nH]c3ccc(F)cc3c2=O)cc1F [BC18303] | < 100 nM | 
O=c1c(S(=O)(=O)c2cc(Cl)cc(Cl)c2)c[nH]c2ccc(Cl)cc12 [BC18304] | 1000 to 10000 nM | 
N#Cc1ccc2[nH]cc(S(=O)(=O)c3cc(Cl)cc(Cl)c3)c(=O)c2c1 [BC18305] | 100 to 1000 nM | 
N#Cc1ccc(S(=O)(=O)c2c[nH]c3ccc(F)cc3c2=O)cc1 [BC18306] | > 10000 nM | 
COc1ccc2[nH]cc(S(=O)(=O)c3ccc(C)c(F)c3)c(=O)c2c1 [BC18307] | 100 to 1000 nM | 
COc1ccc2[nH]cc(S(=O)(=O)c3cc(Cl)cc(Cl)c3)c(=O)c2c1 [BC18308] | > 10000 nM | 
COc1ccc(S(=O)(=O)c2c[nH]c3cc(F)ccc3c2=O)cc1 [BC18309] | 1000 to 10000 nM | 
N#Cc1cccc(S(=O)(=O)c2c[nH]c3cc(C#N)ccc3c2=O)c1 [BC18310] | < 100 nM | 
Cc1ccc2[nH]cc(S(=O)(=O)c3ccc(C#N)cc3)c(=O)c2c1 [BC18311] | > 10000 nM | 
COc1ccc2[nH]cc(S(=O)(=O)c3ccc(C#N)cc3)c(=O)c2c1 [BC18312] | > 10000 nM | 
Cc1ccc(S(=O)(=O)c2cc3cc(Cl)ccc3oc2=O)cc1Cl [BC18313] | > 10000 nM | 
Cc1ccc(S(=O)(=O)c2cc3cc(Br)ccc3oc2=O)cc1Cl [BC18314] | > 10000 nM | 
Cc1cc(C)c(S(=O)(=O)c2ccc(Br)cc2)c(=O)[nH]1 [BC18315] | > 10000 nM | 
COc1ccc2cc(S(=O)(=O)c3ccc(C)c(Cl)c3)c(=O)oc2c1 [BC18316] | > 10000 nM | 
N#Cc1cccc(S(=O)(=O)c2cc3cc(Br)ccc3oc2=O)c1 [BC18317] | > 10000 nM | 
CCc1ccc(C(=O)C2=CN(c3ccccc3)c3ccc(F)cc3S2(=O)=O)cc1 [BC18318] | > 10000 nM | 
COc1cccc2cc(S(=O)(=O)c3ccc(C)c(Cl)c3)c(=O)oc12 [BC18319] | > 10000 nM | 
CCc1ccc(S(=O)(=O)c2c[nH]c3cc(F)c(F)cc3c2=O)cc1 [BC18320] | < 100 nM | 
CCc1ccc(S(=O)(=O)c2c[nH]c3ccc(F)cc3c2=O)cc1 [BC18321] | 100 to 1000 nM | 
CC(C)(C)c1ccc(S(=O)(=O)c2c[nH]c3ccc(Br)cc3c2=O)cc1 [BC18322] | 1000 to 10000 nM | 

SMILES | IC50 [1] | IC50 (LPS-stimulated)
CCOc1ccc2[nH]cc(S(=O)(=O)c3ccc(CO)cc3)c(=O)c2c1 [BC18323] | 100 to 1000 nM | 
Cc1ccc(S(=O)(=O)c2cn(C)c3cc(F)c(F)cc3c2=O)cc1 [BC18324] | > 10000 nM | 
CCn1cc(S(=O)(=O)c2ccc(C)cc2)c(=O)c2cc(F)ccc21 [BC18325] | > 10000 nM | 
CCc1ccc2c(c1)c(=O)c(S(=O)(=O)c1ccc(C)cc1)cn2C [BC18326] | > 10000 nM | 
CCOc1ccc2c(c1)c(=O)c(S(=O)(=O)c1ccc(Cl)cc1)cn2C [BC18327] | > 10000 nM | 
Cc1ccc(S(=O)(=O)c2cn(Cc3cccc(C)c3)c3ccc(F)cc3c2=O)cc1 [BC18328] | 1000 to 10000 nM | 
COc1ccc(S(=O)(=O)c2cn(CC(=O)Nc3ccc(C)cc3)c3ccc(Cl)cc3c2=O)cc1 [BC18329] | > 10000 nM | 
COc1ccc(S(=O)(=O)c2cn(CC(=O)Nc3ccc(C)cc3)c3ccc(F)cc3c2=O)cc1 [BC18330] | > 10000 nM | 
CCc1ccc(S(=O)(=O)c2cn(CCO)c3cc(F)c(F)cc3c2=O)cc1 [BC18331] | > 10000 nM | 
COc1ccc(S(=O)(=O)c2cn(CC(=O)Nc3ccccc3)c3ccc(F)cc3c2=O)cc1 [BC18332] | > 10000 nM | 
COc1cc2c(=O)c(S(=O)(=O)c3ccc(Cl)cc3)cn(Cc3ccccc3F)c2cc1OC [BC18333] | > 10000 nM | 
COc1ccc(S(=O)(=O)c2cn(CC(=O)Nc3ccc(Cl)cc3)c3ccc(C)cc3c2=O)cc1 [BC18334] | > 10000 nM | 
COc1ccc(S(=O)(=O)c2cn(CC(=O)Nc3ccc(F)cc3)c3ccc(C)cc3c2=O)cc1 [BC18335] | > 10000 nM | 
CCCCn1cc(S(=O)(=O)c2ccc(C)cc2)c(=O)c2cc(Cl)ccc21 [BC18336] | > 10000 nM | 
COc1cc2c(=O)c(S(=O)(=O)c3ccccc3)cn(Cc3cccc(Cl)c3)c2cc1OC [BC18337] | > 10000 nM | 
COc1ccc2[nH]cc(S(=O)(=O)c3ccc(OC)c(OC)c3)c(=O)c2c1 [BC18338] | > 10000 nM | 
N#Cc1ccc(S(=O)(=O)c2c[nH]c3cc(F)ccc3c2=O)cc1F [BC18339] | 100 to 1000 nM | 
O=c1c(S(=O)(=O)c2ccc(F)c(F)c2)c[nH]c2c(F)ccc(Cl)c12 [BC18340] | < 100 nM | 
CCN(CC)C(=O)c1ccc2nc(-c3ccccc3)c(-c3ccccc3)nc2c1 [BC18400] |  | < 100 nM
CCOc1ccccc1CNC(=O)c1ccc2nc(-c3ccc(F)cc3)c(-c3ccc(F)cc3)nc2c1 [BC18401] |  | 100 to 1000 nM
CCCNC(=O)c1ccc2nc(-c3cccc(C)c3)c(-c3cccc(C)c3)nc2c1 [BC18402] |  | 1000 to 10000 nM
CC(C)NC(=O)c1ccc2nc(-c3ccc(F)cc3)c(-c3ccc(F)cc3)nc2c1 [BC18403] |  | < 100 nM
CCOCCCNC(=O)c1ccc2nc(-c3ccc(F)cc3)c(-c3ccc(F)cc3)nc2c1 [BC18404] |  | < 100 nM

SMILES | IC50 [1] | IC50 (LPS-stimulated)
O=C(NCc1cccnc1)c1ccc2nc(-c3ccccc3)c(-c3ccccc3)nc2c1 [BC18405] |  | < 100 nM
CCC1CCN(CCNC(=O)c2ccc3nc(-c4ccccc4)c(-c4ccccc4)nc3c2)CC1 [BC18406] |  | < 100 nM
CNC(=O)c1ccc2nc(-c3cccc(C)c3)c(-c3cccc(C)c3)nc2c1 [BC18407] |  | 1000 to 10000 nM
COc1cccc(CNC(=O)c2ccc3nc(-c4ccc(F)cc4)c(-c4ccc(F)cc4)nc3c2)c1 [BC18408] |  | 100 to 1000 nM
O=C(c1ccc2nc(-c3ccccc3)c(-c3ccccc3)nc2c1)N1CCCC1 [BC18409] |  | < 100 nM
O=C(NCc1ccccn1)c1ccc2nc(-c3ccccc3)c(-c3ccccc3)nc2c1 [BC18410] |  | < 100 nM
CCOc1ccc(-c2nc3ccc(C(=O)NCCN(CC)CC)cc3nc2-c2ccc(OCC)cc2)cc1 [BC18411] |  | 1000 to 10000 nM
O=C(c1ccc2nc(-c3ccccc3)c(-c3ccccc3)nc2c1)N1CCN(c2ccccc2)CC1 [BC18412] |  | 1000 to 10000 nM
CSc1ccc(CNC(=O)c2ccc3nc(-c4ccc(F)cc4)c(-c4ccc(F)cc4)nc3c2)cc1 [BC18413] |  | 100 to 1000 nM
Cc1cccc(-c2nc3ccc(C(=O)NCc4ccc(F)cc4)cc3nc2-c2cccc(C)c2)c1 [BC18414] |  | > 10000 nM
CCCNC(=O)c1ccc2nc(-c3ccc(F)cc3)c(-c3ccc(F)cc3)nc2c1 [BC18415] |  | < 100 nM
CC(C)OCCCNC(=O)c1ccc2nc(-c3ccc(F)cc3)c(-c3ccc(F)cc3)nc2c1 [BC18416] |  | < 100 nM
CCN(CC)CCCNC(=O)c1ccc2nc(-c3ccccc3)c(-c3ccccc3)nc2c1 [BC18417] |  | < 100 nM
CCCN1CCN(CCCNC(=O)c2ccc3nc(-c4ccccc4)c(-c4ccccc4)nc3c2)CC1 [BC18418] |  | 100 to 1000 nM
CCCN(CCC)CCNC(=O)c1ccc2nc(-c3cccc(C)c3)c(-c3cccc(C)c3)nc2c1 [BC18419] |  | 1000 to 10000 nM
O=C(NCc1ccc(F)cc1)c1ccc2nc(-c3ccc(F)cc3)c(-c3ccc(F)cc3)nc2c1 [BC18420] |  | 100 to 1000 nM
O=C(NCc1ccc(Cl)cc1)c1ccc2nc(-c3ccccc3)c(-c3ccccc3)nc2c1 [BC18421] |  | > 10000 nM
COCCNC(=O)c1ccc2nc(-c3ccccc3)c(-c3ccccc3)nc2c1 [BC18422] |  | < 100 nM
C=CCN(CC=C)C(=O)c1ccc2nc(-c3ccccc3)c(-c3ccccc3)nc2c1 [BC18423] |  | < 100 nM
Cc1cccc(CNC(=O)c2ccc3nc(-c4ccc(F)cc4)c(-c4ccc(F)cc4)nc3c2)c1 [BC18424] |  | 100 to 1000 nM
Cc1cccc(-c2nc3ccc(C(=O)NCCN4CCOCC4)cc3nc2-c2cccc(C)c2)c1 [BC18425] |  | 1000 to 10000 nM
CCN(CC)CCNC(=O)c1ccc2nc(-c3ccc(F)cc3)c(-c3ccc(F)cc3)nc2c1 [BC18426] |  | < 100 nM
CCNC(=O)c1ccc2nc(-c3ccc(F)cc3)c(-c3ccc(F)cc3)nc2c1 [BC18427] |  | < 100 nM
